# Results published in PMC6858373 (Scientific Reports, 2019).
# Counter-ions that a name gives are not always drawn. Like-named read-outs stand apart in the source and are kept apart here.
# Experiments:
# [1] = target: T1, FGF14:Nav1.6 C-tail complex (Homo sapiens, UniProt Q92915+Q9UQD0); assay: Split-luciferase complementation assay (LCA) in Clone V double stable HEK293 cells; format: cell-based; settings: for Split Luciferase Assay Z-score Set 1 / Split Luciferase Assay % Lum Set 1: biological replicate Set 1; for Split Luciferase Assay Z-score Set 1 / Split Luciferase Assay Z-score Set 2: normalized to on-plate 0.3% DMSO controls; for Split Luciferase Assay % Lum Set 1 / Split Luciferase Assay %Lum Set 2: normalized to on-plate 0.3% DMSO controls (n=16 per plate); for Split Luciferase Assay Z-score Set 2 / Split Luciferase Assay %Lum Set 2: biological replicate Set 2; for Split Luciferase Assay %Lum Avg: average of Set 1 and Set 2, normalized to 0.3% DMSO controls
# T1 construct: polymerase chain reaction (PCR) amplification of the FGF14 open reading frame (nt 1–855); C-terminal fragment of Nav1.6 (amino acids 1763–1976) fused with CD4ΔC-tail (amino acids 1–395); expressed in transfected cells
# [2] = target: full-length P. pyralis luciferase (Photinus pyralis, UniProt P08659, K549A/L550V/N119G/N50D/S548I); format: cell-based; settings: CC_NCI screening, normalized to on-plate 0.3% DMSO controls; for Luciferase Assay % Lum: full-length luciferase counter-screen luminescence; for Luciferase Assay Z-score: full-length luciferase counter-screen
# Clone V cells [3] = settings: for Toxicity Assay Z-score: human
# Clone V cells [4] = assay: CellTiter Blue (CTB) cell viability counter-screen; settings: for Toxicity Assay Z-score: CTB cell viability
# [5] = CC_NCI screening, normalized to on-plate 0.3% DMSO controls
# [6] = CC_NCI screening, LCA luminescence
# [7] = CC_NCI screening, CTB cell viability fluorescence, normalized to on-plate 0.3% DMSO controls
# T1 sequence (Q92915 1-252 isoform Q92915-2): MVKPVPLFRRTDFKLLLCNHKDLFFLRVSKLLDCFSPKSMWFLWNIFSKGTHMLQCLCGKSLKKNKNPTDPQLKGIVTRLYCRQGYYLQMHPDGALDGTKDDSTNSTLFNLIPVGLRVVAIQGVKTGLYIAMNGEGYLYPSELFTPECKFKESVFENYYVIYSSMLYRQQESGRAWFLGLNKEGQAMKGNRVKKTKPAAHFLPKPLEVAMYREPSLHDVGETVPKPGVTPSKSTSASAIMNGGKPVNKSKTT
# T1 sequence (Q9UQD0 1763-1976 limits assumed): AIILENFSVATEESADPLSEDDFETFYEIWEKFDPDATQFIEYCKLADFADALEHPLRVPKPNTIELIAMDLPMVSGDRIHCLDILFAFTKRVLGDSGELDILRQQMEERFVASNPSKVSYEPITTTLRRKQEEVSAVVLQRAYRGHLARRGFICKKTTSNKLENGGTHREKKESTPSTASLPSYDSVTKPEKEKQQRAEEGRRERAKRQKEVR
# Sequence of full-length P. pyralis luciferase (P08659 whole entry N50D/N119G/S548I/K549A/L550V, looked up): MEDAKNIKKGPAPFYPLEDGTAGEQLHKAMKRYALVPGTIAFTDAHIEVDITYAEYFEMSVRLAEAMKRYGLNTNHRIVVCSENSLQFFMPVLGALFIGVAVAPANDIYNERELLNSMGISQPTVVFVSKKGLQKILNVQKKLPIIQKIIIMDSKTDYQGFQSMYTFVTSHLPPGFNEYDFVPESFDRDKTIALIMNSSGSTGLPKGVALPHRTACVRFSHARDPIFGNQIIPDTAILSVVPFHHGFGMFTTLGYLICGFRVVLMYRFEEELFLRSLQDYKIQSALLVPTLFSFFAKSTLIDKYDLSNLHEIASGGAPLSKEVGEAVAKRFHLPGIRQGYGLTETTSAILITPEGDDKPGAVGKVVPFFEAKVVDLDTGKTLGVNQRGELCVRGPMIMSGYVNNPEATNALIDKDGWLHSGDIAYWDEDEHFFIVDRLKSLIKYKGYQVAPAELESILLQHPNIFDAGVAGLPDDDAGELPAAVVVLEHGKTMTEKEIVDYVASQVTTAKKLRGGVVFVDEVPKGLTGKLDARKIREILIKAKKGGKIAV
SMILES,"Split Luciferase Assay % Lum Set 1 [1, 6] [%]","Split Luciferase Assay %Lum Set 2 [1, 6] [%]","Split Luciferase Assay Z-score Set 1 ([1]; CC_NCI screening, LCA)","Split Luciferase Assay Z-score Set 2 ([1]; CC_NCI screening, LCA)",Split Luciferase Assay %Lum Avg ([1]; CC_NCI screening) [%],Luciferase Assay % Lum [2] [%],Luciferase Assay Z-score [2],"Toxicity Assay Z-score (Clone V cells [3]; 16 h, 30 µM)",Toxicity Assay % Fluor (Clone V cells [4]; [7]) [%],Toxicity Assay Z-score (Clone V cells [4]; [5]),also measured
CC(=O)OCCN1C(=O)c2c(C)nc3ccc(S(=O)(=O)N4CCOCC4)cc3c2C1=O [IVACHTIN],–,–,–,–,–,–,–,–,–,–,Split Luciferase Assay Z-score Set 1 ([1]; CC_NCI screening): 0.99; Split Luciferase Assay % Lum Set 1 ([1]; CC_NCI screening): 112.30%; Split Luciferase Assay Z-score Set 2 ([1]; CC_NCI screening): -3.23; Split Luciferase Assay %Lum Set 2 ([1]; CC_NCI screening): 60.34%; Split Luciferase Assay %Lum Avg [1]: 86.32%; Luciferase Assay % Lum (full-length luciferase counter-screen) [2]: 102.63%; Luciferase Assay Z-score (full-length luciferase counter-screen) [2]: 0.34; Toxicity Assay % Fluor (CTB cell viability fluorescence) (Clone V cells [3]): 108.95%; Toxicity Assay Z-score (CTB cell viability) (Clone V cells [4]; [5]): 1.25
C[C@]12CC[C@H](O)CC1=CC[C@@H]1[C@@H]2CC[C@]2(C)C(c3cccnc3)=CC[C@@H]12 [Abiraterone],115.56,148.76,1.26,3.97,132.16,85.19,-1.90,-2.19,84.37,–,–
CC[C@@]1(O)C(=O)OCc2c1cc1n(c2=O)Cc2cc3c(CN(C)C)c(O)ccc3nc2-1 [Topotecan hydrochloride],57.94,58.26,-3.40,-3.40,58.10,88.71,-1.45,-0.96,93.13,–,–
C#Cc1cccc(Nc2ncnc3cc(OCCOC)c(OCCOC)cc23)c1 [Erlotinib hydrochloride],118.82,73.86,1.52,-2.13,96.34,82.34,-2.26,-0.92,93.40,–,–
CCC1=C[C@@H]2CN(C1)Cc1c([nH]c3ccccc13)[C@@](C(=O)OC)(c1cc3c(cc1OC)N(C)[C@H]1[C@@](O)(C(=O)OC)[C@H](OC(C)=O)[C@]4(CC)C=CCN5CC[C@]31[C@@H]54)C2 [Vinorelbine tartrate],231.88,185.18,10.66,6.93,208.53,110.51,1.35,-1.62,88.42,–,–
Clc1ccc(Nc2nnc(Cc3ccncc3)c3ccccc23)cc1 [VATALANIB],64.47,69.70,-2.87,-2.47,67.08,78.45,-2.76,-1.79,87.19,–,–
"CC[C@@H]1C(=O)N(C)c2cnc(Nc3ccc(C(=O)NC4CCN(C)CC4)cc3OC)nc2N1C1CCCC1 [BI 2536, reference compound]",–,–,–,–,–,–,–,-0.11,–,–,Toxicity Assay % Fluor (Clone V cells [4]): 99.22%
CC1=C(/C=C/C(C)=C/C=C/C(C)=C/C(=O)O)C(C)(C)CCC1 [Tretinoin],117.73,106.11,1.43,0.50,111.92,80.43,-2.51,-1.78,87.25,–,–
COC1=CC(c2cc3ccccc3[nH]2)=N/C1=C\c1[nH]c(C)cc1C [OBATOCLAX],59.03,61.38,-3.31,-3.14,60.20,78.33,-2.78,-1.76,87.39,–,–
Cc1ccc(C(=O)Nc2ccc(CN3CCN(C)CC3)c(C(F)(F)F)c2)cc1C#Cc1cnc2cccnn12 [Ponatinib],53.59,58.26,-3.75,-3.40,55.93,84.93,-1.93,–,80.95,–,Toxicity Assay Z-score (Clone V cells [3]): -2.66
CNC(=O)c1ccccc1Sc1ccc2c(/C=C/c3ccccn3)n[nH]c2c1 [AXITINIB],107.95,91.55,0.64,-0.69,99.75,40.56,-7.61,-1.18,91.58,–,–
CN1CCN(CCOc2cc(OC3CCOCC3)c3c(Nc4c(Cl)ccc5c4OCO5)ncnc3c2)CC1 [AZD 0530],36.20,60.34,-5.16,-3.23,48.27,98.71,-0.17,–,89.05,-1.53,–
CCCS(=O)(=O)Nc1ccc(F)c(C(=O)c2c[nH]c3ncc(-c4ccc(Cl)cc4)cc23)c1F [PLX4032],51.42,47.85,-3.93,-4.24,49.64,83.18,-2.15,–,81.90,-2.53,–
CNC(=O)c1cc(Oc2ccc(NC(=O)Nc3ccc(Cl)c(C(F)(F)F)c3)c(F)c2)ccn1 [Regorafenib],43.81,47.85,-4.54,-4.24,45.83,83.68,-2.09,–,88.66,-1.59,–
COc1cc(Nc2c(C#N)cnc3cc(OCCCN4CCN(C)CC4)c(OC)cc23)c(Cl)cc1Cl [BOSUTINIB],–,94.67,0.73,-0.43,101.85,108.17,1.05,–,88.31,-1.63,–
CCCS(=O)(=O)Nc1ccc(F)c(C(=O)c2c[nH]c3ncc(-c4ccc(Cl)cc4)cc23)c1F [Vemurafenib],104.69,105.07,0.38,0.41,104.88,93.28,-0.86,–,86.56,-1.88,–
Nc1nc(Cl)nc2c1ncn2[C@H]1C[C@H](O)[C@@H](CO)O1 [Cladribine],–,–,–,3.04,–,98.25,-0.22,–,83.86,-2.26,–
Cn1cnc2c(F)c(Nc3ccc(Br)cc3Cl)c(C(=O)NOCCO)cc21 [AZD 6244],100.34,90.51,0.03,-0.77,95.42,96.05,-0.51,–,108.13,1.14,–
O=P(O)(O)C(O)(Cn1ccnc1)P(=O)(O)O [Zoledronic acid],100.34,119.64,0.03,1.60,109.99,94.25,-0.74,–,89.11,-1.52,–
